From patent US20060233711A1, “Method for treating conditions associated with fear memory” (priority 2005, published 2006)

What was measured:
GluR5 = settings: treated animals; cited from earlier work
KARs = settings: SYM2206 at 100 μM; cited from earlier work
[1] = tested on: EPSCs in LA neurons (thalamic input); experiment: Whole-cell patch-clamp recording of EPSCs in lateral amygdala neurons in slices; assay type: cell-based, mice
Protocol: Transverse slices ([…]) of the amygdala were transferred to a room temperature submerged recovery chamber with oxygenated (95% O2 and 5% CO2) ACSF solution as described above. After a one hour recovery, slices were placed in a recording chamber on the stage of an Axioskop 2FS microscope (Zeiss) equipped with infrared DIC optics for visualized whole-cell patch clamp recordings. Excitatory postsynaptic currents were recorded from cells in the lateral amygdala with an Axon 200B amplifier (Axon Instruments, Calif., USA). Electrical stimulations (200 μsec duration) were delivered by a bipolar tungsten stimulating electrode placed in the internal capsule (thalamic inputs) (Tsvetkov et al., 2004). EPSCs were induced by repetitive stimulations at 0.02-0.05 Hz and neurons were voltage clamped at −70 mV. In all experiments, the stimulus intensity was adjusted to produce synaptic responses with an amplitude of 70-100 pA. […] Access resistance was 15-30 M ? and monitored throughout the experiment. […]

AMPA receptors = settings: cited from earlier work

O=C(O)c1ccc(C[C@H]2CC[C@H]3CN[C@H](C(=O)O)C[C@H]3C2)cc1 [LY382884]
behavioral responses to formalin and Complete Freund's adjuvant (CFA) (GluR5): reduced

CCCNC(=O)N1N=C(c2ccc(N)cc2)c2cc3c(cc2C1C)OCO3 (racemic) [SYM2206, (±)-4-(4-aminophenyl)-1,2-dihydro-1-methyl-2-propylcarbamoyl-6,7-methylenedioxyphthalazine]
inhibition of KARs (KARs): 20-30% | effect on EPSCs ([1]; bath application of AP5 (50 μM) plus SYM2206 (100 μM), n=17, LA neurons): reduced, but did not completely block | IC50 (AMPA receptors; AMPA receptors, read-out: half-maximal inhibitory concentration): 1000 to 2000 nM | inhibition of AMPA receptors (AMPA receptors; SYM2206 at 100 μM): maximal inhibition

N#Cc1cc2[nH]c(=O)c(=O)[nH]c2cc1[N+](=O)[O-] [CNQX]
effect on residual (SYM2206-insensitive) current ([1]; CNQX 20 μM, after AP5 plus SYM2206, n=5): completely blocked
